According to patent publication US10150728B2, “Alkylene derivatives” (Shionogi & Co., Ltd., priority 2013, dated 2018):

target: recombinant human ACC2 (Homo sapiens (Human), UniProt O00763); experiment: Measurement of inhibitory activity on human ACC2 (MALDI-TOF MS, acetyl CoA to malonyl CoA conversion); format: biochemical; details: Table 154
How it was run: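 His-tagged human ACC2 (residues 27–2458) from baculovirus-infected Sf-9 cells was preincubated 1 h in pH 7.4 HEPES-KOH buffer with MgCl2, 6-10 mM potassium citrate, glutathione and BSA. Substrate solution held 1 mM ATP, 0.8 mM acetyl CoA and 25-50 mM bicarbonate. After 1–3 h at room temperature, malonyl CoA/(malonyl+acetyl CoA) was read by negative-mode MALDI-TOF MS; citrate, bicarbonate and time varied by enzyme lot.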

Sequence of recombinant human ACC2 (O00763 27-2458): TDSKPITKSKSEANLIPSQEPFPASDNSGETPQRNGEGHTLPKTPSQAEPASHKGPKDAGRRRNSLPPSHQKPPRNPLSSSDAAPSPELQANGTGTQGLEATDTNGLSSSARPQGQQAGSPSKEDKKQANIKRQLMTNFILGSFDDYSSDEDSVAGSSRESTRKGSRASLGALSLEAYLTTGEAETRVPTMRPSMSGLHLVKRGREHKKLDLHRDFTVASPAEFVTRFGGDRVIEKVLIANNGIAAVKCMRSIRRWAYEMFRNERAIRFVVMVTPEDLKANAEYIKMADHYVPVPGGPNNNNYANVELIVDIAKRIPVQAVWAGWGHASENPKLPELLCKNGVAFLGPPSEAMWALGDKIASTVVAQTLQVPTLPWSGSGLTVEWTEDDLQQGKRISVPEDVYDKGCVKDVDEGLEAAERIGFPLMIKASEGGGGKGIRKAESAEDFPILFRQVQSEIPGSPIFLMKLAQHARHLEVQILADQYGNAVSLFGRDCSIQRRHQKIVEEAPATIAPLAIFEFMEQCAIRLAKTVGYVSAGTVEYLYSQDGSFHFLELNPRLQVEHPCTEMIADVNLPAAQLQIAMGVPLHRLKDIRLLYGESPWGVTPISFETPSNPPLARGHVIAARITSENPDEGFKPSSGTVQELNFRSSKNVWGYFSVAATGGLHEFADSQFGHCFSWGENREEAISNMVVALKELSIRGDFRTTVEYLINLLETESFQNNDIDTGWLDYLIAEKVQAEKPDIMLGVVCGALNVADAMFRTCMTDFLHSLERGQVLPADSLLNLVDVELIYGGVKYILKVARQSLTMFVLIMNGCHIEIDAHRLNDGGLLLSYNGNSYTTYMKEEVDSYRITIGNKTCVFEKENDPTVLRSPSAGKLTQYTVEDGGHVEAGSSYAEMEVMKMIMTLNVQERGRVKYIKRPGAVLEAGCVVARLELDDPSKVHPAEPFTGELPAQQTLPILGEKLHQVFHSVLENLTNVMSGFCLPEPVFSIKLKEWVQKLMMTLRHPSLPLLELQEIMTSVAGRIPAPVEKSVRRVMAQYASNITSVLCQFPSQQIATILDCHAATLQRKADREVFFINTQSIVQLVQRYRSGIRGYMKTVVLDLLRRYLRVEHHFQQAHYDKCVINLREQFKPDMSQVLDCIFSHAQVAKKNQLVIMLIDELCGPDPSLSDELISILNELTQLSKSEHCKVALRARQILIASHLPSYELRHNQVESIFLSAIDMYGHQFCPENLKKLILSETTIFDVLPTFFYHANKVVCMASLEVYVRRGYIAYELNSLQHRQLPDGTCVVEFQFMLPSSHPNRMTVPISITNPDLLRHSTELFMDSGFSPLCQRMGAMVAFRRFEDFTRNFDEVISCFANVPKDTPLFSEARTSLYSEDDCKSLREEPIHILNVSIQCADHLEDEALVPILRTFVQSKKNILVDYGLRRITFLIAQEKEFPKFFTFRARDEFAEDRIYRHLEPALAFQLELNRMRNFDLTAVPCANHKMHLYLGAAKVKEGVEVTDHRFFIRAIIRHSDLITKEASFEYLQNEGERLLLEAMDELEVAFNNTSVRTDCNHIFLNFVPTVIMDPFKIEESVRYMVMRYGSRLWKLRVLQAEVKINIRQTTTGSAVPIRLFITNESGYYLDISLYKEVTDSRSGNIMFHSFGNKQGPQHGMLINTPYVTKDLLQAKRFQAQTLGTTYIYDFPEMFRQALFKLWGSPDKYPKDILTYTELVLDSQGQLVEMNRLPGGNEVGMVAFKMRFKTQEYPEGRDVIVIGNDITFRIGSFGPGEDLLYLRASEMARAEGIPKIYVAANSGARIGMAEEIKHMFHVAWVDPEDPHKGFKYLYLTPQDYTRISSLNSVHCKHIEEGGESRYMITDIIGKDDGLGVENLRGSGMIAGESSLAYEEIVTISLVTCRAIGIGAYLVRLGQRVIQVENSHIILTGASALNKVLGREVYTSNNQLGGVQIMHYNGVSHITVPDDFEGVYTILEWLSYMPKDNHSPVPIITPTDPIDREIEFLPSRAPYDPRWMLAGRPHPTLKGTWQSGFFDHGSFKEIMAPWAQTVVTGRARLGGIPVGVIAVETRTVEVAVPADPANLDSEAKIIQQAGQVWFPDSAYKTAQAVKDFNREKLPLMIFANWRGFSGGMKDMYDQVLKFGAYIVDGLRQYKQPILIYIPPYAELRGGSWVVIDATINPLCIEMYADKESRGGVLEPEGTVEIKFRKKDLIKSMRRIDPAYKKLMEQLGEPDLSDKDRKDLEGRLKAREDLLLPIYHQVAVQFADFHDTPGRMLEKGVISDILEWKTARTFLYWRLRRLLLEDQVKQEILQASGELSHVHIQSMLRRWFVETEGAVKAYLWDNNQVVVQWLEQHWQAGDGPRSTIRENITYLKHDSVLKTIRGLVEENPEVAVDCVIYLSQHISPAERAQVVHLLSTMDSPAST

| SMILES | IC50 [nM] |
| --- | --- |
| CCOc1ncc2c(Cl)c(Oc3cnc(OC[C@H](C)NC(C)=O)cn3)ccc2n1 [Compound I-069] | 1400 |
| CC(=O)N[C@@H](C)COc1cnc(Oc2ccc(C(=O)NCC(C)C)c(F)c2F)cn1 [Compound I-095] | 1050 |
| CC(=O)N[C@@H](C)COc1ccc(Oc2ccc3nc(C(C)C)sc3c2Cl)cn1 [Compound I-012] | 64 |
| CC(C)c1nc2ccc(Oc3ccc(OC[C@H](C)NC(=O)CO)nc3)c(Cl)c2s1 [Compound I-025] | 652 |
| CC(=O)N[C@@H](C)COc1cnc(Oc2ccc3nc(C4(F)CC4)sc3c2F)cn1 [Compound I-050] | 10 |

More lines, now with the values ahead:

| IC50 [nM] | SMILES |
| --- | --- |
| 1300 | CC(=O)N[C@@H](C)CO[C@H]1CC[C@H](Oc2ccc3sc(C(C)C)nc3c2Cl)CC1 [Compound I-066] |
| 265 | CC(=O)N[C@@H](C)CO[C@H]1CC[C@H](Oc2ccc3nc(C(C)(F)F)sc3c2Cl)CC1 [Compound I-052] |
| 182 | CC(=O)N[C@@H](C)CO[C@H]1CC[C@H](Oc2ncc(-c3ccccc3)cc2C#N)CC1 [Compound I-105] |

same assay, conditions: Tables 155-159

| SMILES | IC50 [nM] |
| --- | --- |
| CCOc1nc2c(Cl)c(F)c(OC[C@H]3C[C@H](OC[C@H](C)NC(C)=O)C3)nc2s1 [Compound I-214] | 39 |
| CC(=O)N[C@@H](C)CO[C@H]1C[C@H](COc2ccc3nc(OCC4CCO4)sc3n2)C1 (stereo partly drawn) [Compound I-199] | 121 |
| CO[C@H]1C[C@H](Oc2nc3ccc(OC[C@H]4C[C@H](OC[C@H](C)NC(C)=O)C4)nc3s2)C1 [Compound I-280] | 79 |
| CC(=O)N[C@@H](C)CO[C@H]1C[C@](C)(COc2nccc(-c3ccc(F)cc3)c2Cl)C1 [Compound I-394] | 18 |
| CC(=O)N[C@@H](C)CO[C@H]1C[C@H](COc2ccc3nc(N(C)CC#N)sc3n2)C1 [Compound I-282] | 892 |
| COc1ccc(COc2ncnc(OC[C@H]3C[C@H](OC[C@H](C)NC(C)=O)C3)c2Cl)cn1 [Compound I-348] | 57 |
| CC(=O)N[C@@H](C)CO[C@H]1C[C@H](COc2ccc3nc(C(C)(F)F)sc3c2F)C1 [Compound I-107] | 97 |
| CC(=O)N[C@@H](C)CO[C@H]1C[C@H](COc2c(F)cc3nc(C(C)C)sc3c2Cl)C1 [Compound I-132] | 48 |
| CC(=O)N[C@@H](C)CO[C@H]1C[C@H](COc2ncnc3c2c(I)cn3CC2CC2)C1 [Compound I-425] | 170 |
| CC(=O)N[C@@H](C)CO[C@H]1C[C@H](COc2ccc3nc(OCC4(C)CC4)sc3n2)C1 [Compound I-198] | 5 |
| CC(=O)N[C@@H](C)CO[C@H]1C[C@H](COc2ncnc(OCc3ncc(C)s3)c2Cl)C1 [Compound I-410] | 15 |
| CCOc1nc2cc(F)c(OC[C@]3(F)C[C@@H](OC[C@H](C)NC(C)=O)C3)nc2s1 [Compound I-164] | 39 |
| CC(=O)N[C@@H](C)CO[C@H]1C[C@H](COc2ncnc(NC(=O)c3ccccc3)c2Cl)C1 [Compound I-452] | 109 |
| CC(=O)N[C@@H](C)CO[C@H]1C[C@](F)(COc2ccc3nc(C(C)C)sc3n2)C1 [Compound I-144] | 127 |
| CC(=O)N[C@@H](C)CO[C@H]1C[C@H](COc2nccc(C3=CCCC3)c2C)C1 [Compound I-336] | 25 |
| CC(=O)N[C@@H](C)CO[C@H]1C[C@H](COc2ccc3nc(N4CC5(CCC5)C4)sc3n2)C1 [Compound I-284] | 17 |
| CC(=O)N[C@@H](C)CO[C@H]1C[C@H](COc2ncnc(NCc3cccc(Cl)c3)c2Cl)C1 [Compound I-340] | 21 |
| CC(=O)N[C@@H](C)CO[C@H]1C[C@H](COc2ccc3nc(O[C@@H]4CCOC4)sc3n2)C1 [Compound I-247] | 17 |
| CC(=O)N[C@@H](C)CO[C@H]1C[C@H](COc2ccc3nc(C(C)(F)F)sc3c2Cl)C1 [Compound I-108] | 792 |
| CC(=O)N[C@@H](C)CO[C@H]1C[C@H](COc2ncnc(OCc3ccccn3)c2Cl)C1 [Compound I-377] | 39 |
| CC(=O)N[C@@H](C)CO[C@H]1C[C@H](COc2nccc(NC(=O)c3ccccc3)c2Cl)C1 [Compound I-339] | 35 |
| CC(=O)N[C@@H](C)CO[C@H]1C[C@H](COc2cc3sc(C(C)(C)O)nc3cc2F)C1 [Compound I-159] | 641 |
| CC(=O)N[C@@H](C)CO[C@H]1C[C@H](COc2ccc3nc(N4CC[C@@H](F)C4)sc3n2)C1 [Compound I-287] | 51 |
| CC(=O)N[C@@H](C)CO[C@H]1C[C@H](COc2ccc3nc(OC(C)CF)sc3n2)C1 (stereo partly drawn) [Compound I-194] | 12 |

Continued, values first:

| IC50 [nM] | SMILES |
| --- | --- |
| 9 | CC(=O)N[C@@H](C)CO[C@H]1CC[C@H](Oc2nc3ccc(Oc4ccccc4)cc3n2C)CC1 [Compound I-586] |
| 74 | CC(=O)N[C@@H](C)CO[C@H]1C[C@H](COc2ccc3nc(OCC4CC4)n(C)c3n2)C1 [Compound I-476] |
| 497 | COC(=O)NC(=O)N[C@@H](C)CO[C@H]1CC[C@H](Oc2nc3cnc(OC4CC4)c(Cl)c3n2C)CC1 [Compound I-696] |
| 6 | CC(=O)N[C@@H](C)CC[C@@H]1CC[C@@H](Oc2nc3cnc(OCC(F)F)c(Cl)c3n2C)CO1 [Compound I-684] |
| 314 | CCOc1nc2cc(Cl)c(OC[C@H]3C[C@H](OC[C@H](C)NC(C)=O)C3)nc2n1C [Compound I-488] |
| 540 | CC(=O)N[C@@H](C)CO[C@H]1C[C@H](COc2ccc3nc(OC4CC4)n(C)c3n2)C1 [Compound I-475] |
| 350 | CC(=O)N[C@@H](C)[C@@H](C)O[C@H]1CC[C@H](Oc2nc3cnc(OC4CC4)c(F)c3n2C)CC1 [Compound I-746] |
| 4 | CC(=O)N[C@@H](C)CO[C@H]1CC[C@H](Oc2nc3c(F)cc(OCC(F)F)c(Cl)c3n2C)CC1 [Compound I-637] |
| 140 | CC(=O)N[C@@H](C)CO[C@H]1CC[C@H](Oc2nc3c(Cl)ccc(F)c3n2C)CC1 [Compound I-638] |
| 7 | CC(=O)N[C@@H](C)CO[C@H]1CC[C@H](Oc2nc3c(Cl)nc(OC4CC4)c(F)c3n2C)CC1 [Compound I-711] |
| 350 | CCOc1ccc2nc(O[C@H]3CC[C@H](OC[C@H](C)NC(C)=O)CC3)n(C(C)C)c2c1 [Compound I-562] |
| 21 | CCOc1nc2ccc(O[C@H]3CC[C@H](OC[C@H](CC)NC(C)=O)CC3)c(F)c2s1 [Compound I-232] |
| 48 | CC(=O)N[C@@H](C)CO[C@H]1CC[C@H](Oc2nc3c(Cl)cc(OCC(F)F)cc3n2C)CC1 [Compound I-706] |
| 77 | CC(=O)N[C@@H](C)CO[C@H]1C[C@H](COc2cc3sc(C(C)C)nc3cc2F)C1 [Compound I-133] |
| 90 | CC(=O)N[C@@H](C)CO[C@H]1CC[C@H](Oc2ncc3nc(OCC4(F)COC4)sc3c2F)CC1 [Compound I-274] |
| 13 | CC(=O)N[C@@H](C)CO[C@H]1CC[C@H](Oc2ncc3nc(O[C@H]4CCOC4)sc3c2F)CC1 [Compound I-276] |
| 9 | CC(=O)N[C@@H](CF)CO[C@H]1CC[C@H](Oc2nc3c(F)cc(OCC(F)F)c(F)c3n2C)CC1 [Compound I-700] |
| 5 | CC(=O)N[C@@H](C)CC[C@@H]1CC[C@@H](Oc2nc3c(F)cc(OCC(F)F)c(F)c3n2C)CO1 [Compound I-627] |
| 42 | CC(=O)N[C@@H](C)CO[C@H]1CC[C@H](Oc2ccc3nc(N4CCOCC4)sc3c2F)CC1 [Compound I-176] |

| IC50 [nM] | SMILES |
| --- | --- |
| 5 | CCOc1nc2cc(F)c(O[C@H]3CC[C@H](OC[C@H](C)NC(C)=O)CC3)nc2s1 [Compound I-186] |
| 33 | CC(=O)N[C@@H](C)CO[C@H]1CC[C@H](Oc2nc3c(F)cc(OCC4CC4)cc3n2C)CC1 [Compound I-737] |
| 30 | C[C@@H](CO[C@H]1CC[C@H](Oc2ccc3nc(C(C)(F)F)sc3c2F)CC1)NC(=O)C1COC1 [Compound I-166] |
| 17 | CC(=O)N[C@@H](C)CO[C@H]1CC[C@H](Oc2cc3sc(OCC4(C)CC4)nc3cn2)CC1 [Compound I-261] |
| 5 | CCOc1nc(F)c2nc(O[C@H]3CC[C@H](OC[C@H](C)NC(C)=O)CC3)n(C)c2c1Cl [Compound I-686] |
| 132 | CCOc1nc2ccc(O[C@H]3CC[C@H](OC[C@H](C)NC(C)=O)CC3)c(F)c2n1C [Compound I-507] |
| 12 | CC(=O)N[C@@H](C)CO[C@H]1CC[C@H](Oc2ccc3nc(OC(C)C)sc3n2)CC1 [Compound I-209] |
| 46 | CC(=O)N[C@@H](C)CO[C@H]1CC[C@H](Oc2ncc(-c3ncc(C(F)(F)F)cn3)cc2F)CC1 [Compound I-545] |
| 120 | C[C@@H](CO[C@H]1CC[C@H](Oc2ccc3nc(C(C)(F)F)sc3c2F)CC1)NC(=O)CO [Compound I-143] |
| 59 | C[C@@H](CO[C@H]1CC[C@H](Oc2nc3c(F)cc(OCC(F)F)c(F)c3n2C)CC1)NC(=O)CO [Compound I-628] |
| 180 | CC(=O)N[C@@H](C)CO[C@H]1C[C@H](COc2ccc3nc(OC[C@H](C)F)n(C)c3n2)C1 [Compound I-485] |
| 123 | C[C@@H](CO[C@H]1CC[C@H](Oc2ncc3nc(OC4CC4)sc3c2F)CC1)NC(=O)CO [Compound I-272] |
| 13 | CC(=O)N[C@@H](C)CO[C@H]1CC[C@H](Oc2nc3ccc(OCC(F)F)c(F)c3n2C)CC1 [Compound I-677] |
| 375 | CC(=O)N[C@@H](C)CO[C@H]1CC[C@H](Oc2nc3c(C4CC4)cc(OCC(F)F)cc3n2C)CC1 [Compound I-650] |
| 260 | CC(=O)N[C@@H](C)[C@@H](C)O[C@H]1CC[C@H](Oc2nc3cnc(OCC(F)F)c(Cl)c3n2C)CC1 [Compound I-732] |
| 2 | CC(=O)N[C@@H](C)CO[C@H]1CC[C@H](Oc2nc3c(F)cc(OC4CC4)c(Cl)c3n2C)CC1 [Compound I-655] |
| 9 | CC(=O)N[C@@H](C)CO[C@H]1CC[C@H](Oc2nc3c(F)c(F)c(F)c(F)c3n2C)CC1 [Compound I-619] |
| 216 | CC(=O)N[C@@H](C)CO[C@H]1CC[C@H](Oc2nc3cc(Br)ccc3n2C)CC1 [Compound I-557] |
